Results reported in ChEMBL document CHEMBL5346954, “Rational Design of RNA Demethylase FTO Inhibitors with Enhanced Antileukemia Drug-Like Properties” (J Med Chem, 2023).
Converted amounts (≈) assume the structure as drawn.

Legend:
[1] = test system: MOLM-13; assay: Antiproliferative activity against human MOLM-13 cells incubated for 72 hrs by CCK8 assay; format: functional, cell-based; details: MOLM-13, 72 h
[2] = test system: NB-4; assay: Antiproliferative activity against human NB4 cells incubated for 72 hrs by CCK8 assay; format: functional, cell-based; details: NB-4, 72 h
[3] = Solubility of the compound in PBS at pH 7.4; format: physicochemical
[4] = Permeability of the compound by PAMPA; format: ADME; details: read-out: permeability
[5] = Metabolic stability in human liver microsomes assessed as half life; format: ADME, Microsome
[6] = Metabolic stability in mouse liver microsomes assessed as half life; format: ADME, Microsome
[7] = Metabolic stability in human liver microsomes assessed as intrinsic clearance per mg of protein; format: ADME, Microsome; details: read-out: CLH
[8] = Metabolic stability in mouse liver microsomes assessed as intrinsic clearance per mg of protein; format: ADME, Microsome; details: read-out: CLH
[9] = Tmax in ICR mouse at 1 mg/kg, iv measured upto 24 hrs by LC-MS/MS analysis; format: ADME, organism-based; details: in vivo
[10] = Tmax in ICR mouse at 10 mg/kg, po measured upto 24 hrs by LC-MS/MS analysis; format: ADME, organism-based; details: in vivo
[11] = Cmax in ICR mouse at 1 mg/kg, iv measured upto 24 hrs by LC-MS/MS analysis; format: ADME, organism-based; parameters: time < 24 hrs, dose 1 mg/kg, route iv; details: in vivo
[12] = Cmax in ICR mouse at 10 mg/kg, po measured upto 24 hrs by LC-MS/MS analysis; format: ADME, organism-based; parameters: dose 10 mg/kg, time < 24 hrs, route po; details: in vivo
[13] = AUC(0 to t) in ICR mouse at 1 mg/kg, iv measured upto 24 hrs by LC-MS/MS analysis; format: ADME, organism-based; parameters: time < 24 hrs, dose 1 mg/kg, route iv; details: in vivo
[14] = AUC(0 to t) in ICR mouse at 10 mg/kg, po measured upto 24 hrs by LC-MS/MS analysis; format: ADME, organism-based; parameters: dose 10 mg/kg, time < 24 hrs, route po; details: in vivo
[15] = AUC(0 to infinity) in ICR mouse at 1 mg/kg, iv measured upto 24 hrs by LC-MS/MS analysis; format: ADME, organism-based; parameters: dose 1 mg/kg, time < 24 hrs, route iv; details: in vivo
[16] = AUC(0 to infinity) in ICR mouse at 10 mg/kg, po measured upto 24 hrs by LC-MS/MS analysis; format: ADME, organism-based; parameters: time < 24 hrs, dose 10 mg/kg, route po; details: in vivo
[17] = Oral bioavailability in ICR mouse at 10 mg/kg measured upto 24 hrs by LC-MS/MS analysis; format: ADME, organism-based; details: in vivo
[18] = biological target: Alpha-ketoglutarate-dependent dioxygenase FTO (Homo sapiens, UniProt Q9C0B1); assay: Inhibition of FTO (unknown origin)
Alpha-ketoglutarate-dependent dioxygenase FTO, sequence (Q9C0B1 whole entry): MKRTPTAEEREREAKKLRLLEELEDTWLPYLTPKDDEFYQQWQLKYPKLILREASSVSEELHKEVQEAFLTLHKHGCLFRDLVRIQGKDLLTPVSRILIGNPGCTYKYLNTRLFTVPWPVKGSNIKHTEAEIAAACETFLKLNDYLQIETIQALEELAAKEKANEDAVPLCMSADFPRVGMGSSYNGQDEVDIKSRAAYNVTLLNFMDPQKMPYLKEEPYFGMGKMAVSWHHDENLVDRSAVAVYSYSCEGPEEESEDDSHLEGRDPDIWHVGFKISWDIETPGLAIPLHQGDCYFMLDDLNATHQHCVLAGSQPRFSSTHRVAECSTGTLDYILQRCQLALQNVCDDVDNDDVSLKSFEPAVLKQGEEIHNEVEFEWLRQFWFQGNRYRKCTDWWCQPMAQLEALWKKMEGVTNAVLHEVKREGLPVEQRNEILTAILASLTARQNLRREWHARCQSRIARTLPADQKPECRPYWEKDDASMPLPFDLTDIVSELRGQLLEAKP

**Q.** With `CCc1cc(-c2ccncc2)cc(CC)c1Nc1cccc(CN2CC(N(C)C)C2)c1C(=O)O` as the compound, how does the IC50 [1] read?
**A.** 1.5 µM

**Q.** What about the IC50 [2] of the same compound?
**A.** 1 µM

**Q.** With `Cc1noc(C)c1-c1cc(F)c(Nc2ccccc2C(=O)O)c(Cl)c1` as the compound, how does the solubility [3] read?
**A.** 275 µM (≈ 99.1 µg/mL)

**Q.** And the Papp [4]?
**A.** 17.4 ×10⁻⁶ cm/s

**Q.** And the half-life [5]?
**A.** > 3.08 h

**Q.** What about the half-life [6] of the same compound?
**A.** 1.76 h

**Q.** What about the microsomal CLint [7] of the same compound?
**A.** < 7.5 µL/min/mg

**Q.** What about the microsomal CLint [8] of the same compound?
**A.** < 7.5 µL/min/mg

**Q.** What about the Tmax [9] of the same compound?
**A.** 1.5 h

**Q.** What about the Tmax [10] of the same compound?
**A.** 1 h

**Q.** What about the Cmax [11] of the same compound?
**A.** 5400 ng/mL

**Q.** What about the Cmax [12] of the same compound?
**A.** 8500 ng/mL

**Q.** What about the AUC(0-t) at 24 h [13] of the same compound?
**A.** 36200 ng·h/mL

**Q.** And the AUC(0-t) at 24 h [14]?
**A.** 63600 ng·h/mL

**Q.** And the AUC(0-inf) [15]?
**A.** 39200 ng·h/mL

**Q.** And the AUC(0-inf) [16]?
**A.** 68800 ng·h/mL

**Q.** And the bioavailability [17]?
**A.** 17.5%

**Q.** Which IC50 [1] does the source give for `CCc1cc(-c2ccncc2)cc(CC)c1Nc1cccc(CN2CCCOCC2)c1C(=O)O` here?
**A.** 1.5 µM

**Q.** What about the IC50 [2] of the same compound?
**A.** 1 µM

**Q.** For `CCc1cc(-c2ccncc2)cc(CC)c1Nc1cccc(Cn2ccnc2)c1C(=O)O`, which IC50 [18] is on record?
**A.** 6.5 µM

**Q.** For `CCc1cc(-c2ccncc2)cc(CC)c1Nc1cccc(CN(CC)CC)c1C(=O)O`, which IC50 [18] is on record?
**A.** 7.6 µM

**Q.** With `O=C(O)c1c(CN2CCCOCC2)cccc1Nc1c(Cl)cc(-c2nnn[nH]2)cc1Cl` as the compound, how does the solubility [3] read?
**A.** 305 µM (≈ 141 µg/mL)

**Q.** What about the Papp [4] of the same compound?
**A.** < 0.001 ×10⁻⁶ cm/s

**Q.** For `O=C(O)c1c(CN2CCCOCC2)cccc1Nc1c(C2CC2)cc(-c2ccncc2)cc1C1CC1`, which IC50 [18] is on record?
**A.** 2.6 µM
